Where “and” joins values, the source holds several entries; their conditions need not be identical. Equal values may be shown once.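 Tested at 5 concentrations; 48 h exposure; 96-well plates; endpoints linearly interpolated, else capped at highest concentration. Abbreviation: GI50, concentration required for 50% inhibition of growth. TGI marks complete inhibition of growth.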
Assays:
Assay in all cases: NCI-60 cell line screen, 48 h
[1] = tested on: A549 NSCLC
[2] = tested on: DU-145 prostate
[3] = tested on: EKVX NSCLC
[4] = tested on: HCT-116 colon
[5] = tested on: HOP-62 NSCLC
[6] = tested on: HS 578T breast
[7] = tested on: SNB-75 CNS
[8] = tested on: T-47D breast
[9] = tested on: TK-10 renal
[10] = tested on: UACC-62 melanoma

SMILES	GI50 [1]	TGI [1]	GI50 [2]	TGI [2] [µM]	GI50 [3]	TGI [3]	GI50 [4]	TGI [4]	GI50 [5]	TGI [5] [µM]	GI50 [6]	TGI [6]	GI50 [7]	TGI [7]	GI50 [8]	TGI [8]	GI50 [9]	TGI [9]	GI50 [10] [µM]	TGI [10] [µM]
CN(c1ncccc1CNc1nc(Nc2ccc3c(c2)CC(=O)N3)ncc1C(F)(F)F)S(C)(=O)=O	2.56 µM and 2.92 µM	12.2 µM and > 10 µM	2.88 µM and 2.74 µM	> 100	1.84 µM and 2.64 µM	8.23 µM and > 10 µM	1.52 µM and 2.5 µM	12.6 µM and > 10 µM	2.58 µM and 2.59 µM	> 30.1	1.73 µM and 2.47 µM	7.9 µM and > 10 µM	1.33 µM and 1.51 µM	4.78 µM and 4.8 µM	3.22 µM and 2.72 µM	> 33 µM and 9.35 µM	1.87 µM and 1.75 µM	7.82 µM and > 10 µM	1.4	3.62
O=C(Oc1cccc2cccnc12)c1cc2c(cc1Cl)SC(N(c1ccc(F)cc1)S(=O)(=O)c1ccc(Br)s1)=NS2(=O)=O	27.1 µM	> 100 µM	27.3 µM	> 100	22.5 µM	64.1 µM	19.3 µM	55 µM	50.8 µM	> 100	38.9 µM	> 100 µM	26.5 µM	93.5 µM	4.93 µM	38.9 µM	38.1 µM	> 100 µM	32.6	> 100
O=c1[nH]c2ccccc2c2ccccc12	> 100 µM	> 100 µM	> 100 µM	> 100	92.9 µM	> 100 µM	> 100 µM	> 100 µM	> 100 µM	> 100	> 100 µM	> 100 µM	> 100 µM	> 100 µM	> 100 µM	> 100 µM	> 100 µM	> 100 µM	> 100	> 100
Cc1cc2nc3c4cc(O)ccc4n(CCN(C)C)c3nc2cc1C	0.78 µM	5.07 µM	1.03 µM	4.31	2.25 µM	9.96 µM	0.397 µM	3.36 µM	0.676 µM	12.4	1.49 µM	5.41 µM	0.229 µM	2.92 µM	1.28 µM	> 100 µM	2.21 µM	6.13 µM	0.729	2.6
COc1ccc2c(c1OC)C[C@@H]1c3c(cc4c(c3-2)OCO4)CCN1C		> 100 µM		> 100		> 100 µM		47.3 µM		> 100		> 100 µM		52.5 µM		90.2 µM		74.6 µM		43.8
CCOC(=O)C1Cc2c(cc3c4c(cccc24)N(C(C)=O)C3)N(C)C1 (stereo not given)		> 100 µM		> 100		> 100 µM		> 100 µM		> 100		9.07 µM		> 100 µM		> 100 µM		> 100 µM		> 100
CC(C)c1[nH]nc(C(N)=O)c1N=NN(C)C		> 100 µM		> 100		> 100 µM		> 100 µM		> 100		> 100 µM		> 100 µM		> 100 µM		> 100 µM		> 100
COc1ccc(/C=C/C(=O)c2cc(OC)c(OC)c(OC)c2)cc1OCC(=O)Nc1nc2ccc(OC(F)(F)F)cc2s1	1.99 µM	4.7 µM	1.56 µM	4.55	5.11 µM	> 100 µM	1.43 µM	3.15 µM	2.12 µM	4.33	3.08 µM	> 100 µM	0.34 µM	2.3 µM	3.08 µM	10.9 µM	2.08 µM	4.62 µM	9.52	42.1
C=C1CC[C@@H]2[C@](C)(COC(C)=O)[C@H](OC(C)=O)CC[C@@]2(C)[C@@H]1CC(Nc1ccc(S(=O)(=O)NC(C)=O)cc1)C1=CCOC1=O (stereo not given in full)	8.41 µM	18.3 µM	2.8 µM	9.74	10.8 µM	20.9 µM	1.67 µM	3.66 µM	10.8 µM	21.1	8.45 µM	38.8 µM	3.08 µM	12.7 µM	2.46 µM	12 µM	8.01 µM	16.9 µM	2.59	10.8
CC(=O)O[C@H]1C(=O)[C@@]2(C)C(C(OC(=O)c3ccccc3)[C@]3(O)C[C@H](OC(=O)C(OC(=O)CCCC(=O)NCCCN(C)C)C(NC(=O)c4ccccc4)c4ccccc4)C(C)=C1C3(C)C)C1(OC(C)=O)COC1C[C@@H]2O (stereo not given in full)		> 85.3 µM		0.0666		> 100 µM		1.53 µM		11.4		0.0151 µM		0.021 µM		47.8 µM		33.3 µM		7
CCC(C)[C@H]1O[C@]2(CC[C@@H]1C)C[C@@H]1C[C@@H](C/C=C(\C)[C@@H](OC3C[C@H](OC)C(O[C@H]4C[C@H](OC)[C@@H](O)[C@H](C)O4)[C@H](C)O3)[C@@H](C)/C=C/C=C3\CO[C@@H]4[C@H](O)C(C)=C[C@@H](C(=O)O1)[C@]34O)O2 (stereo not given in full)	2.07 µM	11.3 µM	5.59 µM	18.1	2.95 µM	15.1 µM	2.72 µM	10.7 µM	1.8 µM	4.85	3.76 µM	20.7 µM	2.69 µM	7.56 µM	1.57 µM	3.35 µM	3.08 µM	12.7 µM	1.89	6.5
O=C1CSCc2sccc21		> 100 µM		> 100		> 100 µM		> 100 µM		> 100		> 100 µM		> 100 µM		> 100 µM		> 100 µM		> 100

— PubChem BioAssay (NCI)
